Four compounds from publication PMC12030497, “Plasma Protein Binding, Biostability, Metabolite Profiling, and CYP450 Phenotype of TPB15 Across Different Species: A Novel Smoothened Inhibitor for TNBC Therapy” (Pharmaceutics, 2025) can be followed below.

For one series, the target named is T1, CYP2A6 (Homo sapiens, UniProt P11509).
T1 construct: tissue Jiangsu Kejing Bio-Pharmaceutical Co., Ltd; host or cells: human liver microsomes
T1 sequence (P11509 1-494): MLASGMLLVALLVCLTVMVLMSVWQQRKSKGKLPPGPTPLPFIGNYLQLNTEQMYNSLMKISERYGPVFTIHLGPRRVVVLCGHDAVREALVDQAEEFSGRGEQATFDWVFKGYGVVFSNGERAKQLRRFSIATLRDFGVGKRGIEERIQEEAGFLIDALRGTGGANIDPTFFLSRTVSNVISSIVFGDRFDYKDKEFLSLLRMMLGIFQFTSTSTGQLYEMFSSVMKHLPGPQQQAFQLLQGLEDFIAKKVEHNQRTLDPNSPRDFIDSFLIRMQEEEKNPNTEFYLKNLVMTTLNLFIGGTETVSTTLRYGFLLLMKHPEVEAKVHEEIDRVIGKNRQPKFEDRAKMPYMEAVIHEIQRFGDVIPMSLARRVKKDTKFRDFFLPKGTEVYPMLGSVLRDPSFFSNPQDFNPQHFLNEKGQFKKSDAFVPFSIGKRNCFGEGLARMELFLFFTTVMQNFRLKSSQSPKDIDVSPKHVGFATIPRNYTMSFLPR
The series is described as follows: TPB15 metabolism in human liver microsomes with CYP2A6 inhibitor. Format: in vitro ADME. As to conditions: inhibition of TPB15 metabolism, HLM, 90 min, Coumarin 25 μM (CYP2A6). The method, then:
(§1) The specific inhibitors of P450 were employed to evaluate the metabolic phenotype of TPB15, and the metabolic enzymes corresponding to each inhibitor and the system concentration are shown in Table 2. The specific procedure was as follows: a total of 0.5 μL of the substrate TPB15 and 0.5 μL of each specific inhibitor were mixed with 449 μL of human liver microsomes, and the mixture was incubated at 37 °C for 10 min. Subsequently, 50 μL of NADPH with a concentration of 10 mM in PBS were introduced to initiate the reaction. After 90 min, 50 μL of the reaction mixture were transferred to a 150 μL ice-cold methanol solution containing an internal standard to terminate the reaction. The mixture was vortexed for 2 min and then centrifuged at 4 °C at 14,800 rpm for 10 min. A volume of 130 μL of the supernatant was then transferred to a new EP tube, which was centrifuged again at 4 °C at 14,800 rpm for another 10 min. Finally, 5 μL of the supernatant were injected for the determination of substrate TPB15 concentration. Three parallel samples were prepared for each time point. The experiment also included a positive control group and a negative control group. In the positive control group, substrate TPB15 was incubated with human liver microsomes for 90 min without the addition of inhibitors.

Another series concerns the target T2, CYP2C8 (Homo sapiens, UniProt P10632).
T2 construct: tissue Jiangsu Kejing Bio-Pharmaceutical Co., Ltd; host or cells: human liver microsomes
T2 sequence (P10632 1-490): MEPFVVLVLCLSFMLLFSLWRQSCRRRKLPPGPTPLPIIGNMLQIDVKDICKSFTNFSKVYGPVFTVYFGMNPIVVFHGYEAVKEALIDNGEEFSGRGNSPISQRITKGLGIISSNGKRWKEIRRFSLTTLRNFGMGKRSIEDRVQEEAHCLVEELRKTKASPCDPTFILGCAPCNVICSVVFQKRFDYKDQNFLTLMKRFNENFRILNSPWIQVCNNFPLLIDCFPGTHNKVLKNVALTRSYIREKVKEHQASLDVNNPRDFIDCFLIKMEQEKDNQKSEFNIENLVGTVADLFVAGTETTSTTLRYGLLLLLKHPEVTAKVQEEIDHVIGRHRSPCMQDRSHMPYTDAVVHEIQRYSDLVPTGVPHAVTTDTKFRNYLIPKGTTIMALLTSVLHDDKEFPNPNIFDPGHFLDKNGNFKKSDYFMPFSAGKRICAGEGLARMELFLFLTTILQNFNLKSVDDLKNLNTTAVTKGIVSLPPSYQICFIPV
The series is described as follows: TPB15 metabolism in human liver microsomes with CYP2C8 inhibitor. In kind it is in vitro ADME. As to conditions: inhibition of TPB15 metabolism, HLM, 90 min, Quercetin 20 μM (CYP2C8). The method, then:
Three parallel samples were prepared for each time point.

Another series has as its target CYP2C9 (Homo sapiens, UniProt P11712). Conditions: inhibition of TPB15 metabolism, HLM, 90 min, Sulfaphenazole 20 μM (CYP2C9). The method, then: as §1
In series [1] the test system is CYP450 enzymes in human liver microsomes. The series is described as follows: Metabolic enzyme phenotype of TPB15 in human liver microsomes with selective CYP450 inhibitors. In kind it is in vitro ADME. As to conditions: 90 min.
Protocol: The specific procedure was as follows: a total of 0.5 μL of the substrate TPB15 and 0.5 μL of each specific inhibitor were mixed with 449 μL of human liver microsomes, and the mixture was incubated at 37 °C for 10 min. Subsequently, 50 μL of NADPH with a concentration of 10 mM in PBS were introduced to initiate the reaction. After 90 min, 50 μL of the reaction mixture were transferred to a 150 μL ice-cold methanol solution containing an internal standard to terminate the reaction. The mixture was vortexed for 2 min and then centrifuged at 4 °C at 14,800 rpm for 10 min. A volume of 130 μL of the supernatant was then transferred to a new EP tube, which was centrifuged again at 4 °C at 14,800 rpm for another 10 min. Finally, 5 μL of the supernatant were injected for the determination of substrate TPB15 concentration. Three parallel samples were prepared for each time point. The experiment also included a positive control group and a negative control group. In the positive control group, substrate TPB15 was incubated with human liver microsomes for 90 min without the addition of inhibitors. In the negative control group, the substrate TPB15 was incubated for 90 min without inhibitors, with human liver microsomes replaced by an equal volume of phosphate-buffered saline (PBS). The metabolic rate of TPB15 in human liver microsomes was represented by the elimination rate of the substrate TPB15.
The nature of series [2]: Metabolic stability in human liver microsomes (HLM). Format: in vitro ADME. Conditions: HLM; for Concentration (ng/mL) of testosterone, Mean: positive control substrate. As to the method:
(§2) A total of 450 μL liver microsomes from mice, rat, dog, monkey, and human were spiked with 0.5 μL of TPB15 solution and pre-incubated in a water bath at 37 °C for 10 min. Following this, 50 μL of NADPH were added to initiate the reaction. The concentrations of each substance in the incubation system are detailed in Table 1. After initiating the metabolic reaction, 50 μL aliquots were removed at incubation times of 0, 5, 15, 30, 45, 60, and 90 min and transferred to 150 μL of icy methanol solution containing the internal standard to terminate the reaction. The mixtures were swirled for 2 min and then centrifuged at 14,800 rpm at 4 °C for 10 min. […] Three samples were prepared in parallel at each time point. Additionally, both a positive control group and a blank control group were established. In the positive control group, substrate testosterone was incubated with liver microsomes from mice, rat, dog, monkey, and human. The concentrations of substrate testosterone were measured at 0 and 90 min, and the changes in concentration before and after incubation were compared to confirm the activity of the liver microsomes. The blank control group included one drug-containing inactivated liver microsome sample for each species. The metabolic stability parameters, including in vitro elimination half-life (T1/2) and in vitro intrinsic clearance rate (CLint), were calculated based on this graph using the following formulas: in vitro elimination half-life (T1/2) = −0.693/k and in vitro intrinsic clearance rate (CLint) = (0.693 × incubation medium (mL))/(liver microsomes (mg) × T1/2).

A short description of series [3]: Metabolic stability in mouse liver microsomes (MouLM). Format: in vitro ADME, KM mice. Conditions: MouLM, 0 min. As to the method: as §2
Series [4] is described as follows: Metabolic stability in rat liver microsomes (RLM). In kind it is in vitro ADME, Sprague-Dawley rat. As to conditions: RLM; for Concentration (ng/mL) of testosterone, Mean: positive control substrate. As to the method:
as §2

The nature of series [5]: Metabolic stability in monkey liver microsomes (MLM). In kind it is in vitro ADME, crab-eating monkey. As to conditions: MLM; for Concentration (ng/mL) of testosterone, Mean: positive control substrate. As to the method: as §2
Series [6] can be described thus: Metabolic stability in dog liver microsomes (DLM). Format: in vitro ADME, beagle dog. As to conditions: DLM; for Concentration (ng/mL) of testosterone, Mean: positive control substrate. As to the method:
as §2

Molecules are shown by their SMILES. Several values for one entry are separate records, joined by “and”; a condition that tells them apart may be missing. Equal values may be shown once.

Chain of CYP2C9 (P11712 whole entry): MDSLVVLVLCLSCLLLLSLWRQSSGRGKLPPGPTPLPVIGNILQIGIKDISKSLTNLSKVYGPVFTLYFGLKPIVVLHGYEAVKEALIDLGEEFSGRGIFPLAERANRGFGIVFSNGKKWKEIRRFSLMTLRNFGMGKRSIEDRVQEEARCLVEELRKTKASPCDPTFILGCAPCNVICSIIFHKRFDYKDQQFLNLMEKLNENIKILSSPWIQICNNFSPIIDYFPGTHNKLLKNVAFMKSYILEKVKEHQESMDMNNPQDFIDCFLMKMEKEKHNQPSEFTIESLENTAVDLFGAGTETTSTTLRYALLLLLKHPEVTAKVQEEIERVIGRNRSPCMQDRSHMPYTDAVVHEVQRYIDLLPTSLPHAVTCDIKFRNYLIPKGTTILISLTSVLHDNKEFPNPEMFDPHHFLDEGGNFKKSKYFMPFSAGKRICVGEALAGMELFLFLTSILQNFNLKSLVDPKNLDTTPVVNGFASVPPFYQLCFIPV

As to `O=c1ccc2ccccc2o1` [Coumarin], at CYP2A6, the “Inhibitor Rate (%)” value came out at 6.60%.

`O=c1c(O)c(-c2ccc(O)c(O)c2)oc2cc(O)cc(O)c12` [Quercetin]: the “Inhibitor Rate (%)” value at CYP2C8 stood at 8.63%.

For the compound `Nc1ccc(S(=O)(=O)Nc2ccnn2-c2ccccc2)cc1` [Sulfaphenazole, reference compound], the “Inhibitor Rate (%)” value on CYP2C9 is on record as 81.22%. Besides, the “effect of selective CYP450 inhibitor on TPB15 metabolism (significance vs positive control group)” value in series [1] is reported as “significantly inhibited”.

`C[C@]12CC[C@H]3[C@@H](CCC4=CC(=O)CC[C@@]43C)[C@@H]1CC[C@@H]2O` [testosterone]: the “Concentration (ng/mL) of testosterone, single samples (serial number 1-3)” value in series [2] (0 min) was 273 ng/mL and 379 ng/mL and 308 ng/mL; in series [2] (90 min), 19.2 ng/mL and 22.9 ng/mL and 34.7 ng/mL; in series [3], 400 ng/mL and 314 ng/mL and 356 ng/mL; in [4] (0 min), 331 ng/mL and 303 ng/mL; in series [5] (0 min), 293 ng/mL and 385 ng/mL and 301 ng/mL; in [5] (90 min) it was 29.2 ng/mL and 39.7 ng/mL and 38.2 ng/mL. Further, in [6] (0 min), the “Concentration (ng/mL) of testosterone, single samples (serial number 1-3)” value was 300 ng/mL and 364 ng/mL and 375 ng/mL. Also, the “Concentration (ng/mL) of testosterone, Mean” value is given as 320.0 ng/mL in series [2] (0 min); 25.6 ng/mL in [2] (90 min); 356.7 ng/mL in series [3] (positive control substrate); 321.7 ng/mL in [4] (0 min); 22.6 ng/mL in [4] (90 min); 326.4 ng/mL in series [5] (0 min). For the same compound, the “Concentration (ng/mL) of testosterone, Mean” value in [5] (90 min) stood at 35.7 ng/mL; in [6] (0 min), 346.3 ng/mL; in series [6] (90 min), 17.5 ng/mL.
